Measurements reported in US10016500B2, “Poloxamer-based pharmaceutical compositions for treating wounds” (Professional Compounding Centers of America (PCCA), priority 2014, dated 2018).

Tested on: C. albicans ATCC 90028 biofilm
Assay: Antifungal biofilm susceptibility testing (Minimum Biofilm Inhibitory Concentration, broth microdilution, CellTiter 96)
Type: cell-based, Candida albicans
Details: for Minimum Biofilm Inhibitory Concentration: lowest concentration giving 50% reduction of fungal growth, 48 h at 35° C., combination expressed as concentration of itraconazole
Description: Materials: Itraconazole EP Micronized (lot number C149307) and PCCA Formula #10342 (4 g of Itraconazole EP Micronized+37.574 g of Poloxamer composition) were provided by PCCA (Houston, Tex., USA) as powders. Itraconazole and PCCA Formula #10342 were prepared on the day of the assay. Fluconazole and amphotericin B were obtained as powders and stored at 4° C. […] Strain: Candida albicans isolate ATCC 90028 was obtained from American Type Culture Collection (Manassas, Va.), and used in the course of this study. Methods: In order to determine antimicrobial activity of itraconazole and the micronized poloxamer composition against biofilms of Candida albicans, an antifungal biofilm susceptibility testing was developed in conditions where a Minimum Biofilm Inhibitory Concentration (MBIC) of itraconazole within the micronized poloxamer composition, micronized poloxamer excipient, itraconazole, fluconazole and amphotericin B was measured for the C. albicans biofilm according to the conventional NCCLS M27-A broth microdilution method. The testing medium used for growing was RPMI 1640 (American Biorganics, Inc., […].) supplemented with L-glutamine (Sigma Aldrich®). Yeast inocula (100 μL of 1×10^6 cells/mL) were added to each well of 96-well microtiter plates (Corning) and incubated at 37° C. for 48 h. After biofilm formation, medium was aspirated and non-adherent cells were […] (PBS, Sigma Aldrich®). […] A series of sample-free wells and biofilm-free wells were also included to serve as positive and negative controls, respectively. […] Cell viability was determined by using a conventional CellTiter 96® Non-Radioactive Cell Proliferation Assay.

Row | Compound | MBIC [µg/mL] | Minimum Biofilm Inhibitory Concentration
1 | C[C@@H]1[C@H](O)[C@@H](C)/C=C/C=C/C=C/C=C/C=C/C=C/C=C/[C@H](O[C@@H]2O[C@H](C)[C@@H](O)[C@H](N)[C@@H]2O)C[C@@H]2O[C@](O)(C[C@@H](O)C[C@@H](O)[C@H](O)CC[C@@H](O)C[C@@H](O)CC(=O)O[C@H]1C)C[C@H](O)[C@H]2C(=O)O [Amphotericin B, amphotericin B] | 0.5 | 0.5 µg/mL
2 | OC(Cn1cncn1)(Cn1cncn1)c1ccc(F)cc1F [Fluconazole, fluconazole] | > 1024 | >1,024 ug/mL
3 | CCC(C)n1ncn(-c2ccc(N3CCN(c4ccc(OCC5COC(Cn6cncn6)(c6ccc(Cl)cc6Cl)O5)cc4)CC3)cc2)c1=O (centres unmarked) [Itraconazole, itraconazole] |  | 1024 µg/mL
